Reference: US12110533B2, “Stabilisation and isolation of extracellular nucleic acids” (Qiagen GmbH, priority 2011, dated 2024)
Peptide text beside a SMILES is read from it. * marks the point of attachment. Cbz = O=C(OCc1ccccc1)*; CH2Cl = ClC*; CH2F = FC*

Tests used:
[1] = administered in rats in vivo; cited from earlier work
whole blood samples [2] = experiment: 18S DNA duplex real time PCR assay: increase of ribosomal 18S DNA (ccfDNA) in plasma of stored whole blood; type: cell-based, human; settings: for increase of ribosomal 18S DNA in plasma: Example 1, 20 μM in whole blood; for increase of ribosomal 18S DNA in plasma / increase of genomic DNA in plasma: within 7 days of storage at RT; for increase of genomic DNA in plasma: Example 2; for change of ccfDNA level in plasma (day X copies/day 0 copies): Example 8, RT up to 6 days, DHA 0.5 M, inositol 0.05 M, maltitol 0.01 M, mannitol
Protocol: (§1) A test system was designed, wherein cell-containing biological samples, here whole blood samples, were incubated at room temperature (RT) for up to 6 or 7 days. Therein, the sample stabilizing properties of the additives of the present invention were tested on day 0, day 3 and day 6/7 the samples.
(§2) The circulating, extracellular nucleic acids were purified from the obtained plasma samples using the QIAamp® Circulating NA Kit (according to the handbook). In brief: • 10 ml sample input; • lysis: 1 ml Proteinase K and 8 ml Buffer ACL (QIAGEN) • binding: 18 ml Buffer ACB (QIAGEN) • wash-steps: unchanged and according to handbook • elution in 60 μl Buffer AVE (QIAGEN)
4.2. DNA quantification with a real time PCR assay, sensitive for DNA degradation (target: 500 and 66 bp long ribosomal 18S DNA coding sequences).
(samples were diluted 1:10 before amplification)
Detection of ribosomal 18S DNA by quantitative real-time PCR, makes it possible to calculate the x-fold increase of DNA from day 0 to day 3 or 7 (calculation: division of day 3 (or 7) copies by day 0 copies).
The division of short amplicon copy number by long amplicon copy number (66 bp/500 bp) indicates whether the amount of detected short or long amplicons changes over time in a similar way. A decrease of this ratio implies a stronger release of longer rather than of shorter DNA molecules and can be interpreted as release of high molecular weight genomic DNA from blood cells.
On day 0, day 3 and day 6, replicates were processed as follows. […] The cleared plasma fraction was collected and the extracellular nucleic acids were isolated using the QIAamp Circulating nucleic acid kit (1 ml input material, 60 μl elution volume). […] Values that are close to 1 imply preserved levels of ccfDNA. The higher the value, the less stabilization is achieved.

whole blood samples [3] = experiment: Chip gel electrophoresis of DNA isolated from plasma of stored whole blood (DNA size distribution, blood cell stability/DNA release); type: cell-based; settings: for ladder-like pattern (release/fragmentation of genomic DNA): Example 1, 20 μM in 10 ml K2E whole blood, RT, day 3 and day 7, vs DMSO control and K2E blood; for genomic DNA release/fragmentation: Example 2, day 7, RT
Protocol: as §1, with “samples. The samples were processed according to the following protocols, where applicable (for details, see also the specific examples in the results section):” for “samples.”
To separate the blood plasma from the whole blood, the blood samples were centrifuged for 15 min at 5000 rpm, and the obtained plasma samples were again centrifuged for 10 min at 16,000×g at 4° C.
as §2
4.1. Measurement of the blood cell stability/DNA release by the determination of DNA size distribution using a chip gel electrophoresis (2100 Bioanalyzer; Agilent Technologies; Inc., USA) according to manufacturer's instruction (see handbook Agilent DNA 7500 and DNA 12000 Kit Guide), but 1.5 μl instead of 1 μl sample were transferred to the wells.
The eluted circulating cell-free DNA was separated by size using chip gel electrophoresis (for details on the method see above, I, 4.1). […] The DMSO control and the K2E blood (not treated according to the teachings of the present invention) show the same ladder-like pattern of bands. This pattern occurs in samples where apoptosis takes place. During apoptosis, endonucleases degrade genomic DNA at inter-nucleosomal linker regions and produce DNA fragments of circa 180 bp or multiples of 180 bp. Thus, apoptosis occurs in samples which show a clear ladder-like pattern. Furthermore, the strength (darkness) of the pattern is decisive. The darker the bands, the more genomic DNA was released from the cells and thus contaminates the extracellular nucleic acid population.

cathepsin L = cathepsin L (Homo sapiens, UniProt P07711); settings: cited from earlier work
calpain II = molecular target: T1, calpain II (Homo sapiens, UniProt P17655); settings: irreversible inhibitor; cited from earlier work
T1 sequence (P17655 1-700): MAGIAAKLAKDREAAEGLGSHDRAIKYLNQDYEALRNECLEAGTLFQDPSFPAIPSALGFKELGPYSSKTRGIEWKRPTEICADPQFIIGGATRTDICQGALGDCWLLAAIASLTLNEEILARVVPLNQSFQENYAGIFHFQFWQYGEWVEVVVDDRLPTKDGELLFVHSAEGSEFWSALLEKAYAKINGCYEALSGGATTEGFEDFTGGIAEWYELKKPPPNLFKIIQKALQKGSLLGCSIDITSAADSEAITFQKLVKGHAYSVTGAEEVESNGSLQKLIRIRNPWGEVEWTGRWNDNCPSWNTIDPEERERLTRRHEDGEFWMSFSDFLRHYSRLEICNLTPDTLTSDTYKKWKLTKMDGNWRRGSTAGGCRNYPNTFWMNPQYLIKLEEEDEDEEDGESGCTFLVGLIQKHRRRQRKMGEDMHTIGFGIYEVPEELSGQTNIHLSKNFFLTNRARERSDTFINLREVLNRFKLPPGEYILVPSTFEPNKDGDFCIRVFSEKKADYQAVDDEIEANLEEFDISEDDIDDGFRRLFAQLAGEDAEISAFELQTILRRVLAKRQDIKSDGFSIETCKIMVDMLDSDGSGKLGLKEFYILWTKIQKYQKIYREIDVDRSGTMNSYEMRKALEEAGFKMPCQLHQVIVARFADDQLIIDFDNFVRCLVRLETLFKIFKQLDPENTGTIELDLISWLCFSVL
T1 sequence (P04632 1-268 partner): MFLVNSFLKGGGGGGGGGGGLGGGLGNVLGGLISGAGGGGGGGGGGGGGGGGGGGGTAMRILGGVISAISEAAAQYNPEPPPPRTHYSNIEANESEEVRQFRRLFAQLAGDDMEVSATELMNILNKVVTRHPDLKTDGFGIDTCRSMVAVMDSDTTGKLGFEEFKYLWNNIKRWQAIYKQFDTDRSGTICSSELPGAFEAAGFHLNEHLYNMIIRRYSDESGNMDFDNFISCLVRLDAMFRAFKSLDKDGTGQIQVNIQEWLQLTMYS

fragmentin 2 = molecular target: T2, fragmentin 2 (Rattus norvegicus, UniProt P18291); settings: read-out: ID50 (the source's name); cited from earlier work
T2 sequence (P18291 21-248): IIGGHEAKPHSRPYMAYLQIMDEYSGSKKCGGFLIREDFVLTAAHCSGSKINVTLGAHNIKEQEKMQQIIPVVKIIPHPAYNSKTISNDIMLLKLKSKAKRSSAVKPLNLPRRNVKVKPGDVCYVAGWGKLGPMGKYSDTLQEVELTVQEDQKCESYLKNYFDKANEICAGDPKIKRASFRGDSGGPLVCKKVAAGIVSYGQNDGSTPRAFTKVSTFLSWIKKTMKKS

Sequence of cathepsin L (P07711 114-333, species assumed): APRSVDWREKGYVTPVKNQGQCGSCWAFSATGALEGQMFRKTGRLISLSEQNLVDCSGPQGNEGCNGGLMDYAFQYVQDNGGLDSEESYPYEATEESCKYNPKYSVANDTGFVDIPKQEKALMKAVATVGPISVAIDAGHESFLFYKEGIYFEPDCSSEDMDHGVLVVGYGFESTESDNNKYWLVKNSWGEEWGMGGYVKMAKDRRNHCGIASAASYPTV

## N=c1sc2c(n1CC(=O)c1ccc([N+](=O)[O-])cc1)CCCC2 [Pifithrin-α, ρ-Nitro]
[1]
  more potent than Pifithrin-α in vivo: 100-fold more potent than Pifithrin-α when adminstered in rats in

## Cbz-Val-Ala-Asp(OMe)-CH2F
Whole blood samples [2]
  increase of ribosomal 18S DNA in plasma: more prominent on day 7
Whole blood samples [3]
  ladder-like pattern (release/fragmentation of genomic DNA): reduced ladder-like pattern

## CC(C)C(NC(=O)c1ccc2ccccc2n1)C(=O)NC(CC(=O)O)C(=O)COc1c(F)cccc1F (stereo not drawn) [Q-VD-OPh, Quinoline-Val-Asp-CH2-OPH]
Whole blood samples [2]
  increase of ribosomal 18S DNA in plasma: reduced increase of DNA
Whole blood samples [2]; 1 μM with 21 mM glucose
  increase of genomic DNA in plasma: only a minor increase
Whole blood samples [2]; 4 μM with 21 mM glucose
  increase of genomic DNA in plasma: ≤ 4 fold
Whole blood samples [3]
  ladder-like pattern (release/fragmentation of genomic DNA): significantly reduced ladder-like patterns
Whole blood samples [3]; 1 μM with 21.4 mM glucose
  genomic DNA release/fragmentation: significantly reduced
Whole blood samples [3]; 4 μM with 21.4 mM glucose
  genomic DNA release/fragmentation: effect is improved

## O[C@H]1[C@H](O)[C@@H](O)[C@H](O)[C@@H](O)[C@H]1O [inositol, Cyclohexane-1,2,3,4,5,6-geksol]
Whole blood samples [2]
  change of ccfDNA level in plasma (day X copies/day 0 copies): suitable alternatives

## CC(C)C[C@H](NC(=O)OCc1ccccc1)C(=O)N[C@@H](CC(C)C)C(=O)N[C@@H](Cc1ccc(O)cc1)C(=O)CF [Calpain Inhibitor IV, Z-Leu-Leu-Tyr-CH2F] (Cbz-Leu-Leu-Tyr-CH2F)
Cathepsin L
  k2: 680,000 M-1s-1).
Calpain II
  k2: 28,900 M-1s-1). Also acts as an inhibitor of cathepsin L (k2 =

## OCC(O)C(O)C(O)C(O)CO (stereo not drawn) [mannitol, Hexane-1,2,3,4,5,6-hexol]
Whole blood samples [2]
  change of ccfDNA level in plasma (day X copies/day 0 copies): stabilization effects over 3 days

## OC[C@@H](O)[C@@H](O[C@H]1O[C@H](CO)[C@@H](O)[C@H](O)[C@H]1O)[C@H](O)[C@@H](O)CO [maltitol, 4-O-α-D-Glucopyranosyl-D-glucitol]
Whole blood samples [2]
  change of ccfDNA level in plasma (day X copies/day 0 copies): suitable alternatives

## CC(NC(=O)OCc1ccccc1)C(=O)NC(C)C(=O)NC(CC(=O)O)C(=O)CCl (stereo not drawn) [Granzyme B Inhibitor I, Z-Ala-Ala-Asp-CH2Cl] (Cbz-Ala-Ala-Asp-CH2Cl; configuration not given here)
Fragmentin 2
  IC50: 300 nM
